From patent US8952177B2 (Janssen Pharmaceutica NV, priority 2013, dated 2015)
Counter-ions that a name gives are not always drawn.

System: leukotriene pathway in human whole blood (LTB4)
Experiment: Human whole blood assay (LTB4 after calcium ionophore A23187 stimulation)
Format: cell-based
Conditions: human whole blood diluted 1:1 in RPMI, 15 min pre-incubation, A23187 7 μg/mL for 30 min at 37° Celsius
Experimental: The ability of the compounds of the present invention to treat a FLAP-mediated disease and/or disorder, or associated symptoms or complications thereof, was determined using the following procedures. Binding assay data represent the average value obtained from two different assay plates, with samples run in duplicate on each plate. Human whole blood assay data represent a single replicate on an assay plate using whole blood from at least one healthy donor.
An in vitro cellular assay was performed using human whole blood collected in heparin-containing tubes, which was used to test the ability of compounds to modulate the leukotriene pathway in human whole blood. The blood was diluted 1:1 in RPMI medium, pre-incubated for 15 min at 37° Celsius with test compounds at various concentrations, and then stimulated with calcium ionophore, A23187 (7 μg/mL), for 30 min at 37° Celsius. The samples were then centrifuged and plasma was removed. The plasma was diluted in assay buffer and LTB4 levels were measured using a commercial kit (Enzo Life Sciences). The concentration of each compound that was required for half-maximal inhibition (modulation) of […] (IC50) was calculated by a 4-parameter equation using the program GraphPad Prism (GraphPad software). For analysis, data are imported into 3DX and aggregated as the average of duplicates of the calculated ratios in order to calculate Ki and IC50 values. Numbers in parentheses are the number of runs for the assay.

Compound | IC50 (Homo sapiens) | IC50 (TFA salt)
Cc1ccc(Cn2c([C@H]3CCCC[C@@H]3C(=O)O)nc3ccc(OCc4ccc(C)cn4)cc32)cc1 (racemic) [Example 120, racemic trans-2-{1-(4-Methylbenzyl)-6-[(5-methylpyridin-2-yl)methoxy]-1H-benzimidazol-2-yl}cyclohexanecarboxylic acid] | 0.64 µM | –
Cc1ccc(COc2ccc3nc([C@H]4[C@@H](C(=O)O)C4(C)C)n(Cc4ccc(Br)cc4F)c3c2)nc1 (stereo in doubt) [Example 16, (1S*,3R*)-3-{1-(4-Bromo-2-fluorobenzyl)-6-[(5-methylpyridin-2-yl)methoxy]-1H-benzimidazol-2-yl}-2,2-dimethylcyclopropanecarboxylic acid] | 0.41 µM | –
Cn1ccc(COc2ccc3nc(CC4(C(=O)O)CCCC4)n(Cc4ccc(Br)cc4)c3c2)n1 [Example 46, 1-({1-(4-Bromobenzyl)-6-[(1-methyl-1H-pyrazol-3-yl)methoxy]-1H-benzimidazol-2-yl}methyl)cyclopentanecarboxylic acid as the TFA salt] | 6.19 µM | –
Cc1ccc(COc2ccc3nc(C4CCCC[C@@H]4C(=O)O)n(Cc4ccc(Br)cc4)c3c2)nc1 (mixture of isomers) [Example 5, racemic trans-2-{1-(4-Bromobenzyl)-6-[(5-methylpyridin-2-yl)methoxy]-1H-benzimidazol-2-yl}cyclohexanecarboxylic acid as the TFA salt] | – | 1.39 µM
Cc1ccc(Cn2c([C@@H]3CCCC[C@@H]3C(=O)O)nc3ccc(OCc4ccc(C)cn4)cc32)cc1 (racemic) [Example 119, racemic cis-2-{1-(4-Methylbenzyl)-6-[(5-methylpyridin-2-yl)methoxy]-1H-benzimidazol-2-yl}cyclohexanecarboxylic acid] | 0.32 µM | –
Cn1ccc(COc2cc(F)c3nc([C@H]4CCCC[C@H]4C(=O)O)n(Cc4ccc(C#N)cc4)c3c2)n1 (racemic) [Example 98, racemic cis-2-{1-(4-Cyanobenzyl)-4-fluoro-6-[(1-methyl-1H-pyrazol-3-yl)methoxy]-1H-benzimidazol-2-yl}cyclohexanecarboxylic acid as the HCl salt] | 5.72 µM | –
Cc1ccc(Cn2c(C3CCCC[C@@H]3C(=O)O)nc3c(F)cc(OCc4ccc(C)cn4)cc32)cc1 (mixture of isomers) [Example 70, racemic trans-2-{4-Fluoro-1-(4-methylbenzyl)-6-[(5-methylpyridin-2-yl)methoxy]-1H-benzimidazol-2-yl}cyclohexanecarboxylic acid as the TFA salt] | 0.93 µM | –
Cc1ccc(COc2ccc3nc([C@@H]4CCCC[C@@H]4C(=O)O)n(Cc4ccc(OC(F)(F)F)cc4Br)c3c2)nc1 (racemic) [Example 102, racemic cis-2-{1-[2-Bromo-4-(trifluoromethoxy)benzyl]-6-[(5-methylpyridin-2-yl)methoxy]-1H-benzimidazol-2-yl}cyclohexanecarboxylic acid as the HCl salt] | 1.03 µM | –
Cc1ccc(COc2cc(F)c3nc(C4[C@H](C(=O)O)C4(C)C)n(Cc4ccc(Br)cc4)c3c2)nc1 (mixture of isomers) [Example 63, racemic cis-3-{1-(4-Bromobenzyl)-4-fluoro-6-[(5-methylpyridin-2-yl)methoxy]-1H-benzimidazol-2-yl}-2,2-dimethylcyclopropanecarboxylic acid] | 1.08 µM | –
Cc1ccc(COc2ccc3nc([C@@H]4CCCC[C@@H]4C(=O)O)n(Cc4ccc(N5CC(F)(F)C5)cc4)c3c2)nc1 (relative stereo) [Example 160, (1S*,2R*)-2-{1-[4-(3,3-Difluoroazetidin-1-yl)benzyl]-6-[(5-methylpyridin-2-yl)methoxy]-1H-benzimidazol-2-yl}cyclohexanecarboxylic acid] | 0.31 µM | –
COc1ncc(-c2ccc(Cn3c([C@H]4CCCC[C@H]4C(=O)O)nc4ccc(OCc5ccc(C)cn5)cc43)cc2)cn1 (racemic) [Example 144, racemic cis-2-{1-[4-(2-Methoxypyrimidin-5-yl)benzyl]-6-[(5-methylpyridin-2-yl)methoxy]-1H-benzimidazol-2-yl}cyclohexanecarboxylic acid] | 0.96 µM | –
Cc1ccc(COc2ccc3nc([C@@H]4[C@H](C(=O)O)C4(C)C)n(Cc4ccc(Br)cc4F)c3c2)nc1 (stereo in doubt) [Example 15, racemic cis-3-{1-(4-Bromo-2-fluorobenzyl)-6-[(5-methylpyridin-2-yl)methoxy]-1H-benzimidazol-2-yl}-2,2-dimethylcyclopropanecarboxylic acid] | 1 µM | –
CCC(CC)(Cc1nc2ccc(OCc3ccn(C)n3)cc2n1Cc1ccc(N2CCC(C(F)(F)F)CC2)cc1F)C(=O)O [Example 189, 2-ethyl-2-((1-(2-fluoro-4-(4-(trifluoromethyl)piperidin-1-yl)benzyl)-6-((1-methyl-1H-pyrazol-3-yl)methoxy)-1H-benzo[d]imidazol-2-yl)methyl)butanoic acid] | 1.48 µM | –
Cc1ccc(COc2ccc3nc([C@H]4CCCC[C@H]4C(=O)O)n(Cc4ccc(N5CC(F)(F)C5)cc4F)c3c2)nc1 (stereo in doubt) [Example 166, (1R*,2S*)-2-{1-[4-(3,3-Difluoroazetidin-1-yl)-2-fluorobenzyl]-6-[5-methylpyridin-2-yl)methoxy]-1H-benzimidazol-2-yl}cyclohexanecarboxylic acid] | 6.4 µM | –
Cc1ccc(COc2ccc3nc([C@@H]4CCCC[C@@H]4C(=O)O)n(Cc4ccc(OC(F)(F)F)c(C)c4)c3c2)nc1 (racemic) [Example 109, racemic cis-2-{6-[(5-Methylpyridin-2-yl)methoxy]-1-[3-methyl-4-(trifluoromethoxy)benzyl]-1H-benzimidazol-2-yl}cyclohexanecarboxylic acid] | 0.36 µM | –
Cc1ccc(COc2ccc3nc([C@H]4CCCC[C@H]4C(=O)O)n(Cc4ccc(OC(F)(F)F)c(Cl)c4)c3c2)nc1 (racemic) [Example 32, racemic cis-2-{1-[3-Chloro-4-(trifluoromethoxy)benzyl]-6-[(5-methylpyridin-2-yl)methoxy]-1H-benzimidazol-2-yl}cyclohexanecarboxylic acid] | 0.21 µM | –
Cc1ccc(COc2ccc3nc(C4CCCC[C@@H]4C(=O)O)n(Cc4ccc(Br)cc4F)c3c2)nc1 (mixture of isomers) [Example 13, racemic trans-2-{1-(4-Bromo-2-fluorobenzyl)-6-[(5-methylpyridin-2-yl)methoxy]-1H-benzimidazol-2-yl}cyclohexanecarboxylic acid] | 1.19 µM | –
Cc1ccc(COc2cc(F)c3nc(CC(C)(C)C(=O)O)n(Cc4ccc(Br)cc4)c3c2)nc1 [Example 60, 3-{1-(4-Bromobenzyl)-4-fluoro-6-[(5-methylpyridin-2-yl)methoxy]-1H-benzimidazol-2-yl}-2,2-dimethylpropanoic acid] | 2.64 µM | –
Cc1ccc(COc2ccc3nc(C4CCCC[C@H]4C(=O)O)n(Cc4ccc(N5CCC(F)(F)CC5)cc4)c3c2)nc1 (mixture of isomers) [Example 154, racemic cis-2-{1-[4-(4,4-Difluoropiperidin-1-yl)benzyl]-6-[(5-methylpyridin-2-yl)methoxy]-1H-benzimidazol-2-yl}cyclohexanecarboxylic acid] | 0.21 µM | –
CCC(CC)(Cc1nc2ccc(OCc3ccn(C)n3)cc2n1Cc1ccc(OC(F)(F)F)c(F)c1)C(=O)O [Example 57, 2-Ethyl-2-({1-[3-fluoro-4-(trifluoromethoxy)benzyl]-6-[(1-methyl-1H-pyrazol-3-yl)methoxy]-1H-benzimidazol-2-yl}methyl)butanoic acid] | ~8 µM | –
